The values below come from US20100179203A1, “NOVEL PYRAZOLE DERIVATIVES USEFUL AS POTASSIUM CHANNEL MODULATORS” (priority 2007, published 2010).

Molecules are shown by their SMILES.

One data set addresses T1, BK channels (Homo sapiens, UniProt Q12791).
T1 construct: expressed in transfected cells; host or cells: Xenopus laevis oocytes
Kind of data set: BK channel opening activity, two-electrode voltage clamp in Xenopus laevis oocytes. The format is cell-based. On the procedure:
In this example the BK channel opening activity of Compound 9 (FIGS. 1A and 1B) is determined using BK channels heterologously expressed in Xenopus laevis oocytes.
The electrical current through the BK channel was measured using conventional two-electrode voltage clamp. BK currents were activated by repeating ramp protocols. In brief, the membrane potential was continuously changed from −120 mV to +120 mV within a 2 s period. The threshold for BK activation is approximately +30 mV under control conditions. Compounds were applied for 100 s during which the ramp protocol was repeated 10 times with 10 s intervals. In between the ramp protocols the membrane potential was clamped at −80 mV. The first three compound applications were control blanks where the current level is allowed to stabilize.
In order to evaluate the ability of the compounds to shift the BK activation curve towards lower membrane potentials, the BK current was transformed into conductance by using Ohm's law […], where g is the conductance, I is the current, Ememb is the membrane potential and Erev is the reversal potential. The extracellular solution for these experiments contained 2.5 mM K+ and the intracellular K+ concentration of an oocyte was estimated to be 100 mM. Under those conditions, Nernst equation predicts a reversal potential of Erev=−93.2 mV. The control conductance level at a membrane potential of +100 mV was calculated, and the compound effect was evaluated as the potential difference, ΔV, to the membrane potential at which the same conductance level was obtained in the presence of compound.
The concentration response curve for this potential difference was fitted to the sigmoidal logistic equation: ΔV=ΔVmax/(1+(EC50/[compound])^n), where ΔVmax represents the maximal left shift of the BK activation curve, EC50 is the concentration causing a half maximal response, and n is the slope coefficient.
On the technique in general: Two-electrode voltage clamp holds a large cell at a set potential and records current.

T1 sequence (Q12791 whole entry): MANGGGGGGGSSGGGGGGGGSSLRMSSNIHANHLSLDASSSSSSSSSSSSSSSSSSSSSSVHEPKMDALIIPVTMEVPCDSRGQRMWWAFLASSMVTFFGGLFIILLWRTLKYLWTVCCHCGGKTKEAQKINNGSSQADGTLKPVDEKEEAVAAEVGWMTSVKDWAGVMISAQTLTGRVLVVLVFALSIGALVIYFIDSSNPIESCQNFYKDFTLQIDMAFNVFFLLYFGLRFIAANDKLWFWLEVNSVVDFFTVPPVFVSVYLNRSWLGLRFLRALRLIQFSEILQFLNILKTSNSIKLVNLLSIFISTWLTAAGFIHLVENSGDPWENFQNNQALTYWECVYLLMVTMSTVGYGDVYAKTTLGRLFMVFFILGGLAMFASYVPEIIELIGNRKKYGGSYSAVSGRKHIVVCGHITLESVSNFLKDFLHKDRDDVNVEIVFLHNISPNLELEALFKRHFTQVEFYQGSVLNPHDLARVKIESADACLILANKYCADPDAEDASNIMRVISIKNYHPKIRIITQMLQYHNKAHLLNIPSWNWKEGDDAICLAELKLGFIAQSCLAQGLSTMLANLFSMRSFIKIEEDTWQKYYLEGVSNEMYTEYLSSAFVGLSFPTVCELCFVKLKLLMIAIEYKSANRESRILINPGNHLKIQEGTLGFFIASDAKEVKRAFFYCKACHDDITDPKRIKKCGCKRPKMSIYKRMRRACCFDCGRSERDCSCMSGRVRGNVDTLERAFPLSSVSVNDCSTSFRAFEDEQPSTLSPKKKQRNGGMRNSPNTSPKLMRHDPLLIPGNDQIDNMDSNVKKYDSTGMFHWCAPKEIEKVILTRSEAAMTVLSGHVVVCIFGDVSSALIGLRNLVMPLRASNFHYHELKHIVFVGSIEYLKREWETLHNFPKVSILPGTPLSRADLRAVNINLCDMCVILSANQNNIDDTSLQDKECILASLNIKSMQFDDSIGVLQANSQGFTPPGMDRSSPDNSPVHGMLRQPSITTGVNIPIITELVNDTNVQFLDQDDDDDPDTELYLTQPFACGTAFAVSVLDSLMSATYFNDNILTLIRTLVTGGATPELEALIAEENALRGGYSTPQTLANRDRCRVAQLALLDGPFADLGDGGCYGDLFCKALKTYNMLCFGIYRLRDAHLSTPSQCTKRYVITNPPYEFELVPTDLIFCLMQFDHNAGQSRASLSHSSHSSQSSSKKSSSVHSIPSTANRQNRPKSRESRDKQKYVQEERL

`COc1ccc(-n2cc(/C=C/C(=O)O)c(-c3ccc(Cl)c(F)c3)n2)cc1Cl` [Compound 3, (E)-3-[3-(4-Chloro-3-fluoro-phenyl)-1-(3-chloro-4-methoxy-phenyl)-1H-pyrazol-4-yl]-acrylic acid] had a melting point of 240.2 to 241.3 °C.

For the molecule `COc1ccc(-n2cc(/C=C/c3nnn[nH]3)c(-c3ccc(Cl)c(F)c3)n2)cc1Cl` [Compound 5, 5-{(E)-2-[3-(4-Chloro-3-fluorophenyl)-1-(3-chloro-4-methoxy-phenyl)-1H-pyrazol-4-yl]-vinyl}-1H-tetrazole], the melting point was 128.4 to 130 °C.

With `COc1ccc(-n2cc(/C=C/C(=O)NS(C)(=O)=O)c(-c3ccc(Cl)c(F)c3)n2)cc1Cl` [Compound 6, N-{(E)-3-[3-(4-Chloro-3-fluoro-phenyl)-1-(3-chloro-4-methoxy-phenyl)-1H-pyrazol-4-yl]-acryloyl}-methanesulfonamide], the melting point lay in the range of 269.3 to 270.5 °C.

With `Clc1ccc(-c2nn(-c3ccc(Br)cc3)cc2CCc2nnn[nH]2)cc1` [Compound 9, 5-{2-[1-(4-Bromo-phenyl)-3-(4-chloro-phenyl)-1H-pyrazol-4-yl]-ethyl}-1H-tetrazole], the EC50 on BK channels (BK channels heterologously expressed in Xenopus laevis oocytes, ramp -120 to +120 mV, 0.01-31.6 μM, fit of ΔV vs concentration, read-out: EC50 for the left-shift of the BK activation curve) is 1400 nM. Moreover, at BK channels (BK channels heterologously expressed in Xenopus laevis oocytes, ΔV referred to control conductance at +100 mV, 0.01-31.6 μM), the “ΔVmax, maximal left shift of the BK activation curve” value is reported as −96 mV. The “BK current level at depolarizing potentials” value at BK channels (increasing concentrations (0.01-31.6 μM) applied, Xenopus laevis oocytes) is recorded as “marked increase in the current level”.

Molecule `COc1ccc(-n2cc(/C=C(\C#N)C(=O)O)c(-c3ccc(Cl)c(F)c3)n2)cc1Cl` [Compound 14, (E)-3-[3-(4-Chloro-3-fluoro-phenyl)-1-(3-chloro-4-methoxy-phenyl)-1H-pyrazol-4-yl]-2-cyano-acrylic acid] showed a melting point of 282.8 to 284.2 °C.

As to `O=c1[nH]c(Cc2cn(-c3cc(C(F)(F)F)cc(C(F)(F)F)c3)nc2-c2cccc(Cl)c2)no1` [Compound 17, 3-[1-(3,5-Bis-trifluoromethyl-phenyl)-3-(3-chloro-phenyl)-1H-pyrazol-4-ylmethyl]-4H-[1,2,4]oxadiazol-5-one], the melting point is 200 to 201 °C.

Regarding `COc1ccc(-n2cc(CC(=O)NS(C)(=O)=O)c(-c3ccc(Cl)c(F)c3)n2)cc1Cl` [Compound 18, N-{2-[3-(4-Chloro-3-fluorophenyl)-1-(3-chloro-4-methoxy-phenyl)-1H-pyrazol-4-yl]-acetyl}-methanesulfonamide], the melting point was 216.8 to 218.2 °C.

Usually melting point stands for the temperature of the solid-liquid transition.
